# Measurements taken from patent publication US20020128189A1, “Ubiquitination of the transcription factor E2A” (President and Fellows of Harvard College, a Massachusetts …, priority 1996, published 2002).
# pIC50: −log10 of the molar value. Square brackets hold non-standard residues; d marks the D form. Peptide text beside a SMILES is read from it. * marks the point of attachment. Nle = CCCC[C@H](N)C(=O)O; Nva = CCC[C@H](N)C(=O)O; Cbz = O=C(OCc1ccccc1)*
# Experiments:
# ovalbumin degradation = details: Rock et al., cited from earlier work; for pIC50: read-out: concentration causing 50% inhibition of ovalbumin degradation
# [1] = tested on: NF-kB precursor protein p105; details: cited from earlier work
# 20S proteasome = target: T1, 20S proteasome (Homo sapiens, UniProt P28074); details: cited from earlier work
# T1 sequence (P28074 60-263): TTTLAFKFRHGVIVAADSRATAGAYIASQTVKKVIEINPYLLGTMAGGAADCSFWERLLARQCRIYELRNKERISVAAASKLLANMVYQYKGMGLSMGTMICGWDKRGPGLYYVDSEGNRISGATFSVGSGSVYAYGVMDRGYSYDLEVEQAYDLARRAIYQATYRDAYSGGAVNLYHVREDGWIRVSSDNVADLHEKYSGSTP
# [2] = tested on: p27 inhibitor of cyclin-dependent kinases; details: cited from earlier work
# human E12 = assay: Pulse-chase analysis of E12 degradation in COS7 cells treated with proteasome/protease inhibitors; type: cell-based; details: 60 min pulse, 3 hour chase
# Procedure: FIG. 2 is a bar graph representing the relative expression of E12 after treatment with the proteasome inhibitor MG132 and the protease inhibitor leupeptin, as follows. COS cells were electroporated with a human E12 expression plasmid. After electroporation (48 hours), cells were treated with either DMSO (a diluent for MG132), 50 μM MG132, or 1 μg/ml leupeptin for 1 hour. The cells were then pulse-chased with [^35S] methionine and the cell extracts were immunoprecipitated with anti-E12 antibody and analyzed by SDS-PAGE fluorography. Inhibitors were present throughout the entire pulse-chase period.
# Cells in 100 mm dishes (either transfected cells 48 hours after transfection or stable cell lines at about 80% confluence) were starved in Met-free DMEM (supplemented with 5% dialyzed fetal bovine serum) for 60 minutes at 37° C. Cells were then pulse-labeled at 37° C. with 100 μCi/ml [^35S]met for 60 minutes at 37° C. Cells were chased in warm DMEM supplemented with 100 μg/ml Met. For the proteasome inhibitor experiment, the inhibitor MG132 […] was added 1 hour before pulse-chase and was present throughout the entire period. […] Incorporation of ^35S into the total protein pool was determined by trichloroacetic acid (TCA) precipitation. […] The bands were measured using a PhosphorImager (Molecular Dynamics). […]
Structure (SMILES),pIC50 (ovalbumin degradation),effect on processing of the NF-kB precursor protein p105 [1],inhibition of the chymotryptic site on the 20S proteasome (20S proteasome),effect on degradation of the p27 inhibitor of cyclin-dependent kinases [2],further results
"CSCC[C@@H](C=O)NC(=O)[C@H](CC(C)C)NC(=O)[C@H](CC(C)C)NC(C)=O [LLM, N-acetyl-L-leucinyl-L-leucinyl-methional] (Ac-Leu-Leu-Met-aldehyde)",< 4.00,–,–,–,–
CCCC[C@@H](C=O)NC(=O)[C@H](CC(C)C)NC(=O)[C@H](CC(C)C)NC(C)=O [MG101] (Ac-Leu-Leu-[Nle]-aldehyde),–,block the processing,potent inhibitors,inhibit the degradation,–
"CCC[C@@H](C=O)NC(=O)[C@H](CC(C)C)NC(=O)[C@H](CC(C)C)NC(=O)OCc1ccccc1 [MG115, N-carbobenzoxyl-L-leucinyl-L-leucinyl-L-norvalinal] (Cbz-Leu-Leu-[Nva]-aldehyde)",6.40,–,potent inhibitors,–,potency relative to LLnL (ovalbumin proteolysis) (ovalbumin degradation): approximately 5 fold
CC(C)C[C@@H](C=O)NC(=O)[C@H](CC(C)C)NC(=O)[C@H](CC(C)C)NC(=O)OCc1ccccc1 [MG132] (Cbz-Leu-Leu-Leu-aldehyde),–,block the processing,potent inhibitors,inhibit the degradation,E12 protein stability (effect on E12 degradation) (human E12; 50 μM MG132 added 1 hour before and present throughout): stabilized
CC(=O)N[C@@H](CC(C)C)C(=O)N[C@@H](CC(C)C)C(=O)N[C@H](C=O)CCCNC(=N)N [leupeptin],–,–,–,–,E12 protein stability (effect on E12 degradation) (human E12; leupeptin 1 μg/ml added 1 hour before and present throughout): no effect
